The values that follow come from PMC12040169 (PLOS Biology, 2025).

The data set can be described thus: in vitro. The note with it: human, hela cells, % viability.

One may read the viability as a read-out of living cells in per cent, often relative to untreated cells. `CS(=O)(=O)c1ccc(-c2ccc(OC3CCN(C(=O)CCCc4ccc(F)cc4)CC3)nc2)cc1` [CBK155044]: the viability at 28.5 h, 10 µM came to 94.8%.
`CCOc1ccc(C)cc1S(=O)(=O)NCCc1c(C)[nH]c2c(Cl)cccc12` [CBK268859]: the viability at 28.5 h, 10 µM worked out at 86.8%.
On the same count and under the same terms, the value for `Cc1ccc(NC(=O)/C=C/c2ccc3c(c2)OCO3)c(NC(=O)/C=C/c2ccc3c(c2)OCO3)c1` [CBK265423] was 114%; that for `Cc1ccccc1-c1ccccc1CC1(C(=O)N(C)C)CCN(C(=O)CC(C)(C)C)CC1` [CBK285715] was 95.1%; that for `COCc1nc(C(=O)Nc2ccc(NC(C)=O)cc2C(F)(F)F)cs1` [CBK306298] was 107%.
Same read-out and setting: the value for `NC(=O)CN1CCC(Oc2cncc(OCCN3CCOCC3)n2)C1` (stereo not drawn) [CBK084488] was 111%; that for `COc1ccc(CCNC(=O)N(C)C2CCN(C)C2)cc1` (stereo not drawn) [CBK156019] was 100%; that for `COC(CNC(=O)Cn1nnnc1CN1CCC(C)CC1)c1cccs1` (stereo not drawn) [CBK306958] was 109%.
Same read-out and setting: the result for `O=C(N[C@H]1CCN2C(=O)[C@H]3CCCN3C(=O)[C@@H]2C1)c1cccs1` [CBK289538] reads 106%.
In the case of `CC(C)(C)c1cc(C(=O)NCc2ccccn2)n(Cc2ccc(Cl)cc2Cl)n1` [CBK107288], the viability at 28.5 h, 10 µM turned out to be 101%.
`Cc1nn(C)c(C)c1CCNC(=O)CC1CCCCN1C` (stereo not drawn) [CBK281774]: the viability at 28.5 h, 10 µM amounted to 97.6%.
Same read-out and setting: the result for `CS(=O)(=O)c1ccccc1C(=O)n1ccn(-c2cccc(C(F)(F)F)c2)c1=O` [CBK106584] reads 91.1%.
As to `O=C1CCCN1c1ccc(S(=O)(=O)NCC2CC3CCC2C3)cc1` (stereo not drawn) [CBK282841], the viability at 28.5 h, 10 µM worked out at 106%.
Consider `Cc1cc(C2CCCCCN2S(=O)(=O)c2ccc3[nH]c(=O)[nH]c(=O)c3c2)on1` (stereo not drawn) [CBK286405], for which the viability at 28.5 h, 10 µM amounted to 93.6%.
For the compound `O=C(Nc1cccc(N2CCNCC2)c1)c1ccccc1` [CBK028255T], the viability at 28.5 h, 10 µM is 114%.
Same read-out and setting: the value for `O=C(CNC(=O)C1CCCCC1)NNC(=O)c1sc2ccccc2c1Cl` [CBK267903] was 98.8%.
For the compound `O=C(O)COc1ccccc1/C=N/n1c(S)nnc1-c1cccnc1` [CBK265337], the viability at 28.5 h, 10 µM turned out to be 89.9%.
Same read-out and setting: the value for `Cc1sc2c(C3CCN(C(=O)C4CC4C)CC3)nc(C)n2c1C` (stereo not drawn) [CBK285299] was 66.4%.
Still for that read-out and setting: the result for `CC1(C)[C@H](Cc2cc(CO)on2)C[C@@H]1N(Cc1ccncc1)Cc1ccncc1` [CBK289233] reads 98.2%.
Still for that read-out and setting: the result for `Cc1n[nH]c(C)c1CC(=O)NC(Cc1cccs1)c1nccs1` (stereo not drawn) [CBK285093] reads 92.1%; that for `COc1ccc([C@H]2CN(Cc3ccccc3)[C@@H]3CCN(C(=O)Cc4ccccc4)C[C@H]23)cc1` [CBK286285], 108%.
Consider `CC1(C)CC(N(Cc2ccccc2)Cc2ncc[nH]2)CC(C)(C)N1` [CBK283179], for which the viability at 28.5 h, 10 µM turned out to be 95.2%.
The same measure, in the same setting: the result for `Cc1nnc(Nc2ccc3c(c2)nc2n3CCN(C3CCCCC3)C2)c2ccccc12` [CBK268042] reads 90.9%.
As to `Cc1ccc(Cn2nc(NC(=O)Oc3ccccc3)c3ccccc32)cc1` [CBK048407], the viability at 28.5 h, 10 µM (bulk resorufin, single well) stood at 84.2%.
With `O=S(=O)(Nc1ccc2nsnc2c1)c1ccc(Br)cc1C(F)(F)F` [CBK062233], the viability at 28.5 h, 10 µM stood at 115%.
For `Cc1ncncc1C(=O)N1CCCCC1CCc1ccccc1` (stereo not drawn) [CBK282264], the viability at 28.5 h, 10 µM was found to be 109%.
Still for that read-out and setting: the value for `Cn1cc(CN(C(=O)c2nc(N)nc3c2CCCC3)C2CC2)cn1` [CBK307352] was 90.1%; that for `Cc1nn(C)c2ncc(S(=O)(=O)NC(C)c3ccc(F)cc3)cc12` (stereo not drawn) [CBK305793] was 93.4%.
The same measure, in the same setting: the value for `O=C(O)CCn1c(-c2ccc(F)cc2)cc2cccnc21` [CBK282583] was 84.4%.
Same read-out and setting: the result for `CCC(=O)N1CCCC(c2nnc(-c3cccs3)o2)C1` (stereo not drawn) [CBK283060] reads 92%.
As for `COc1ccc(S(=O)(=O)N2CCC(C(=O)Nc3cccc(F)c3)CC2)cc1C` [CBK267987], the viability at 28.5 h, 10 µM turned out to be 92%.
The same measure, in the same setting: the value for `c1ccc2c(c1)CCC(CNCCN1CCOCC1)O2` (stereo not drawn) [CBK023956G] was 94%.
Same read-out and setting: the result for `NS(=O)(=O)c1ccc(NC(S)=Nc2ccc(S(=O)(=O)N3CCCC3)cc2)cc1` [CBK266918] reads 80.3%; that for `O=C(CC1CCCCC1)N1CCCC1c1n[nH]cc1-c1ccncc1` (stereo not drawn) [CBK283429], 90.4%; that for `CN1CCC(=NNC(=O)C(=O)NCc2ccco2)CC1` [CBK262341], 84.6%.
On the same count and under the same terms, the value for `Cc1ccc2c(Cl)c(-c3nnc(-c4ccc(Cl)cc4)o3)sc2c1` [CBK263682] was 106%; that for `O=C(O)c1c2c(nc3ccccc13)CCN(Cc1ccccc1)C2` [CBK286805] was 87.4%; that for `Cc1cccc(C)c1NC(=O)CN1CCN(c2nccnc2OCC2COc3ccccc3O2)CC1` (stereo not drawn) [CBK082801T] was 88.9%.
Take `Cn1nc(-c2ccc(S(=O)(=O)Nc3cccc(Cl)c3Cl)s2)cc1C(F)(F)F` [CBK067548]: the viability at 28.5 h, 10 µM is 92.2%.
For `CC(NC(=O)C1CCN(C2Cc3ccccc3C2)CC1)c1ccccc1` (stereo not drawn) [CBK148031], the viability at 28.5 h, 10 µM turned out to be 95.7%.
On the same count and under the same terms, the result for `CC(Nc1ccc(N2CCOCC2)cc1)C(=O)Nc1cccc(C#N)c1` (stereo not drawn) [CBK305846] reads 82.2%; that for `OCc1ccc(CN2C[C@H](O)C[C@H]2c2nc(-c3ccc(F)cc3)no2)o1` [CBK288848], 106%; that for `CC1CCc2sc(C(=O)N3CCC4(CC3)NC(=O)NC4=O)cc2C1` (stereo not drawn) [CBK304992], 89.1%.
For the compound `Clc1cncc(NCCc2c[nH]c3ccccc23)n1` [CBK093514], the viability at 28.5 h, 10 µM turned out to be 56.8%.
Still for that read-out and setting: the value for `COc1ccc(C2=C(Nc3ccc(C(=O)NCc4cccnc4)cc3)c3ccccc3C2=O)cc1` [CBK263809] was 89.1%; that for `Cc1cc(F)ccc1S(=O)(=O)N(C(=O)c1ccncc1)c1ccc(OC(=O)c2ccncc2)cc1` [CBK266909] was 91.1%.
Still for that read-out and setting: the result for `CCn1nnc2c(=O)n(CC(=O)Nc3ccccc3)cnc21` [CBK287828] reads 85.5%; that for `FC(F)(F)c1cccc(CN2CCN(CCc3ccccc3)CC2)c1` [CBK126421], 99.7%; that for `O=C(Cc1ccc(-c2ccccc2)cc1)N1CCC2(CC1)Nc1ccccc1S(=O)(=O)N2` [CBK286189], 79.2%.
Take `CCCCSc1nnc(NS(=O)(=O)c2ccc(NC(C)=O)cc2)s1` [CBK022853]: the viability at 28.5 h, 10 µM turned out to be 98.5%.
As for `CCOC(=O)[C@H]1CC[C@]2(CC1)CNC(=O)c1cc(Cl)ccc1O2` [CBK284849], the viability at 28.5 h, 10 µM turned out to be 89.9%.
Take `CC(Cc1cccs1)NC(=O)c1cc(-c2ccccn2)n[nH]1` (stereo not drawn) [CBK282446]: the viability at 28.5 h, 10 µM is 104%.
For `O=C(c1ccc(F)cc1)c1cn(CCO)c2c(Cl)nccc12` [CBK285129], the viability at 28.5 h, 10 µM stood at 106%.
Consider `CCOc1ccc(NC(=O)CCc2ncc(C(C)(C)C)o2)c(C)c1` [CBK306021], for which the viability at 28.5 h, 10 µM was found to be 104%.
Same read-out and setting: the value for `OC1(c2ccccc2)CCN(Cc2ccccc2-n2cccn2)C1` (stereo not drawn) [CBK282795] was 96.5%; that for `CN(C(=O)c1ccccn1)C1CCN(c2ncnc3ccccc23)CC1` [CBK305346] was 91.8%.
Still for that read-out and setting: the result for `Cn1nccc1NS(=O)(=O)c1ccc(Br)cc1C(F)(F)F` [CBK062082] reads 104%; that for `COc1cccc(C(=O)NNC(=O)Nc2ccccc2)c1` [CBK261608], 91.8%; that for `O=C(NCc1cccs1)N1CCCN(Cc2ccc(F)cc2)CC1` [CBK306294], 97.4%.
Still for that read-out and setting: the value for `Cc1ccccc1C(=O)Nc1ccc(S(=O)(=O)Nc2nccs2)cc1` [CBK086797] was 89.4%; that for `Cc1nc(NC(=N)Nc2ccccc2C(F)(F)F)[nH]c(=O)c1Cc1ccccc1` [CBK269083] was 99.8%; that for `COc1ccc(S(=O)(=O)N(C)CC(=O)N2CCN(C)CC2)cc1C` [CBK268105] was 100%.
Regarding `Cc1ccc(NC(=O)Cc2ccc(N(C)C)cc2)c(C)n1` [CBK200295], the viability at 28.5 h, 10 µM amounted to 104%.
On the same count and under the same terms, the result for `CC(C)(C)NC(=O)N/N=C/c1[nH]ncc1Br` [CBK017439] reads 96%.
On the same count and under the same terms, the value for `c1ccc2oc(-c3cncc(NCCc4c[nH]c5ccccc45)n3)cc2c1` [CBK066068] was 93.1%; that for `CC(C(=O)NC1(C#N)CCCCC1)N1CCOC(CN(C)C)C1` (stereo not drawn) [CBK305155] was 88.6%.
Turning to `CCCC(=O)N(C)C1CCC2(CC1)CNC(=O)c1cc(C)ccc1O2` (stereo not drawn) [CBK281694], the viability at 28.5 h, 10 µM was 88.3%.
Same read-out and setting: the value for `Cc1cc(C2CCCCCN2S(=O)(=O)c2ccc(F)cc2)on1` (stereo not drawn) [CBK284668] was 82.2%.
The same measure, in the same setting: the value for `Cn1nnc2cc(C(=O)N(CCO)c3ccccc3)ccc21` [CBK266522] was 95.5%.
Regarding `CC(C)CNS(=O)(=O)c1ccc(CCC(=O)O)cc1` [CBK287107], the viability at 28.5 h, 10 µM was 80.9%.
Same read-out and setting: the result for `Cc1cccc(C)c1NC(=S)N1CCC2(CC1)OCCO2` [CBK016408] reads 117%; that for `Cc1ccc(S(=O)(=O)NCC(=O)N2CCOCC2)cc1[N+](=O)[O-]` [CBK050597], 98.1%.
On to `O=C(NCc1ccc(Cl)cc1)c1cnc2ccc(CN3CCSCC3)cc2c1O` [CBK018010], for which the viability at 28.5 h, 10 µM turned out to be 97.9%.
Take `Brc1cccc(/C=N/c2ccc3nc(-c4ccccc4)[nH]c3c2)c1` [CBK261143]: the viability at 28.5 h, 10 µM worked out at 109%.
For `Cc1cc(=O)n2ccc(CN3CCOCC3)c(O)c2n1` [CBK262899C], the viability at 28.5 h, 10 µM was 114%.
On the same count and under the same terms, the result for `Cc1[nH]c2ccccc2c1C(=O)N1CCC(CC(=O)N2CCN(c3ccccc3)CC2)CC1` [CBK286033] reads 96.6%; that for `CC(C)Cc1nc(C(=O)N2CCC3(C2)NC(=O)NC3=O)cs1` (stereo not drawn) [CBK305534], 91.8%; that for `CN(C)S(=O)(=O)c1ccc(C(=O)C2=C(O)C(=O)N(Cc3cccnc3)C2c2ccncc2)cc1` (stereo not drawn) [CBK264714], 95.4%.
